From paper PMC4466525, “Design, Synthesis and Structure-Activity Relationship Studies of Novel Survivin Inhibitors with Potent Anti-Proliferative Properties” (PLoS ONE, 2015)
≈ marks a conversion by molar mass, not a printed value.

Legend:
PC-3 = test: Cell viability (MTS) anti-proliferative assay, PC-3; type: cell-based; conditions: PC-3 human prostate cancer, 48 h treatment, n = 4, read-out: IC50 values ± SEM, PC-3
Procedure: The anti-proliferative effect of UC-112 and its analogs were tested in human melanoma (A375, M14 and M14/LCC6MDR1) and human prostate cancer (PC-3) cell lines. All the cell lines were purchased from ATCC (American Type Culture Collection, Manassas, VA). The cancer cells were cultured using the supplemented cell culture medium as described before at 37°C in a humidified atmosphere containing 5% CO2. 5000 cells in logarithm growing phase were seeded overnight into each well of a 96-well plate. Then the cells were continuously incubated with sequential diluted compound solution (10 nM to 100 μM, 100 μl per well) in cell culture medium.

[1] = system: renal cancer cell line UO-31; test: NCI-60 five dose screening, UO-31; type: cell-based; conditions: Homo sapiens, renal cancer UO-31
Procedure: (§1) Four compounds including the parental compound UC-112 were submitted to National Cancer Institute for its NCI-60 cell line screening, initially tested at one concentration (10 μM), and subsequently selected for full five concentration testing following the standard protocols disclosed by NCI [34]. In brief, cells were plated into 96 well micro-titer plates 24 h prior to the treatment of compound solution for 48 h, then the cell viability was read out through absorbance of sulforhodamine B (SRB) staining.

HCT-15 (colon cancer) = test: NCI-60 five dose screening, HCT-15; type: cell-based; conditions: Homo sapiens, colon cancer HCT-15
Procedure: as §1

[2] = Aqueous solubility, shake-flask method; type: physicochemical; conditions: PBS buffer, thermodynamic from solid, PBS pH 7.4, test concentration 200 μM
Procedure: (§2) All these experiments were performed by a contract research service company, Eurofins Panlabs Inc. (Study Number 100017964). Aqueous solubility (μM) was determined using the shake-flask method by comparing the peak area of the principal peak in a calibration standard (200 μM) containing organic solvent (methanol/water, 60/40, v/v) with the peak area of the corresponding peak in a buffer sample. Metabolic stability study was carried out by incubating compound 4g with human liver microsomes. Metabolic stability which is expressed as percent of the parent compound remaining, was calculated by comparing the peak area of the compound at the time point relative to that at time-0. The half-life (T1/2) was estimated from the slope of the initial linear range of the logarithmic curve of compound remaining (%) vs. time. In the cytochrome P450 inhibition study, human liver microsomes (0.1 mg/mL) were incubated with different substrates and compound 4g for 10 minutes. After the incubation, peak areas corresponding to the metabolite of each substrate were recorded. The percent of control activity was then calculated by comparing the peak area obtained in the presence of compound 4g to that obtained in the absence of compound 4g. Subsequently, the percent inhibition was calculated by subtracting the percent control activity from 100.

[3] = Metabolic stability in human liver microsomes; type: in vitro ADME
Procedure: as §2

CYP1A = target: T1, CYP1A (Homo sapiens, UniProt P05177); test: Cytochrome P450 inhibition, CYP1A; type: in vitro ADME; conditions: probe phenacetin, substrate phenacetin, human liver microsomes 0.1 mg/mL, read-out: % inhibition of control values, CYP1A
T1 construct: tissue Eurofins Panlabs Inc. (contract research service) Study Number 100017964; host or cells: human liver microsomes
Procedure: as §2

CYP2D6 = target: T2, CYP2D6 (Homo sapiens, UniProt P10635); test: Cytochrome P450 inhibition, CYP2D6; type: in vitro ADME; conditions: probe dextromethorphan, substrate dextromethorphan, human liver microsomes 0.1 mg/mL, read-out: % inhibition of control values, CYP2D6
T2 construct: tissue Eurofins Panlabs Inc. (contract research service) Study Number 100017964; host or cells: human liver microsomes
Procedure: as §2

survivin [4] = target: T3, survivin (Homo sapiens, UniProt O15392); test: Western blotting of survivin level, A375 cells; type: cell-based
T3 construct: endogenous in cells; host or cells: A375 cells
Procedure: (§3) Lysates of A375 cells treated by the compound solution for 24 h were used to determine the change of IAP protein levels through western blotting. Primary rabbit antibodies against survivin, XIAP, cIAP1, cIAP2, livin and GAPDH were purchased from Cell Signaling Technology, Inc. (Danvers, MA) and used according to manufacture instructions as reported previously. Protein lane intensities were quantified by ImageJ software (US National Institutes of Health, Bethesda, MD).

survivin [5] = target: T3, survivin; test: Western blotting of survivin level, PC-3 cells; type: cell-based; conditions: 24 h
[6] = system: other IAPs (XIAP, cIAP1, cIAP2, livin); test: Western blotting of other IAP levels; type: cell-based, human; conditions: 24 h, A375 and PC-3 cells
Procedure: as §3

XIAP, cIAP1 or cIAP2 = test: DARTS assay, other IAPs; type: binding, human; conditions: 20 μM, pronase-digested A375 or M14 cell lysates
Procedure: Drug affinity responsive target stability (DARTS) assay was performed to identify the protein targets of UC-112 analogs in A375 or M14 cell lysates following the protocols described in the literature. Briefly, A375 or M14 lysates were prepared in non-denaturing M-PER lysis buffer (Thermo Fisher Scientific, Waltham, MA) with protease and phosphatase inhibitors. Then TNC (Tris, NaCl, CaCl2) buffer was added into cell lysates before the total protein concentration of lysate being determined by BCA protein assay kit (Thermo Fisher Scientific, Waltham, MA). The lysates were split into two groups: one group was added with compound of interest solution, the other group was added with same amount of vehicle (DMSO). The samples were mixed thoroughly and incubated at room temperature for 1 h. Then 10 mg/mL pronase stock solution was added into both compound treated or vehicle control groups to achieve the final dilution of 1:100, 1:300, 1:1000 and 1:3000. One aliquot of each group was kept as un-digested control. The proteolysis was performed at room temperature for 30 min before ice cold protease inhibitor stock being added into the mixture. Then SDS loading buffer was added into all the samples and heated to 70°C for 10 min. Finally, the results were analyzed by SDS-PAGE and immunoblotting.

T3 sequence (O15392 whole entry): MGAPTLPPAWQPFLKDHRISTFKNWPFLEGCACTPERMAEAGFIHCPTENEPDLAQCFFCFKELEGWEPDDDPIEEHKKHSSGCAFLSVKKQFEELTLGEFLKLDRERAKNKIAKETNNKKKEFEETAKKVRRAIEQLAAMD
T1 sequence (P05177 2-516 limits assumed): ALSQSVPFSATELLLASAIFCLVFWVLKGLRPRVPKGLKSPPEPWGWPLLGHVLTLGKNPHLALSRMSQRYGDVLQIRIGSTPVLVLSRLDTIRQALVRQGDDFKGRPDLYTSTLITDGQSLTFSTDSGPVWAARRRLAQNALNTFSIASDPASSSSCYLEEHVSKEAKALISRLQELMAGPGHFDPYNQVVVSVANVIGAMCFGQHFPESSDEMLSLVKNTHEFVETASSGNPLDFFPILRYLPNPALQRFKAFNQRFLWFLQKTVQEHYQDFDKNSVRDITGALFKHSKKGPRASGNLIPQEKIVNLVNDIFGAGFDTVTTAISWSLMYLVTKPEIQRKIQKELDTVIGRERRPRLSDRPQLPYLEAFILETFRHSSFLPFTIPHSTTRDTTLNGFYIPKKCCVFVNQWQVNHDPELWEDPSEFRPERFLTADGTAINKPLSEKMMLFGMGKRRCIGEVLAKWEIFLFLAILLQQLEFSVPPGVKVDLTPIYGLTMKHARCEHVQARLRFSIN
T2 sequence (P10635 whole entry): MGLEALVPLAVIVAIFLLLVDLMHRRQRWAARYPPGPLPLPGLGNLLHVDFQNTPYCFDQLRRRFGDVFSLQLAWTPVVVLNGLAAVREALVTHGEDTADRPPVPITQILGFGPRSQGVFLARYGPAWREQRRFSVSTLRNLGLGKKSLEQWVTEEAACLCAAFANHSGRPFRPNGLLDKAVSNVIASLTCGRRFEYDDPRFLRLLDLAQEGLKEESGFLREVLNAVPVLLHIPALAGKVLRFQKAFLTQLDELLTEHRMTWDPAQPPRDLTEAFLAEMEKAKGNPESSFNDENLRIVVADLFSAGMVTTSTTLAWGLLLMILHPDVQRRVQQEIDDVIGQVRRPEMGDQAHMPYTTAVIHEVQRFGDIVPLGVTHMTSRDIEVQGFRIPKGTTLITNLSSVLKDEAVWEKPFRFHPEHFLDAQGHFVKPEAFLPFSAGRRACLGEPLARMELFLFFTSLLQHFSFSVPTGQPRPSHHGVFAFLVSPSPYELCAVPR

For CC(C)c1ccc(COCc2cc(CN3CCCC3)c(O)c3ncccc23)cc1 [4g, 5-(((4-isopropylbenzyl)oxy)methyl)-7-(pyrrolidin-1-ylmethyl)quinolin-8-ol], the IC50 (PC-3) was 700 ± 100 nM, the GI50 [1] was 52.5 nM and the GI50 (HCT-15 (colon cancer)) was 46.8 nM. For the same compound, the solubility [2] was 149 µM (≈ 58.1 µg/mL), the microsomal CLint at 100 nM ([3]; human) was 137 µL/min/mg and the half-life at 100 nM ([3]; test concentration 100 nM) was 51 min. The inhibition at 10 min (CYP1A) was 18%, the inhibition at 10 min (CYP2D6) was 87% and the “Reduction of survivin level, A375” value (survivin [4]; 300 nM, 24 h, A375 cells, lane density by ImageJ) was “over 50%”. The “IC50 values for survivin inhibition” value (survivin [4]; estimated from western blotting, A375 and PC-3 cells) was “low nanomolar range”, the “Effect on survivin level, A375” value (survivin [4]; gradient increasing dose, 24 h, A375 cells) was “dose-dependently suppressed survivin level” and the “Reduction of survivin level, PC-3” value (survivin [5]; 300 nM, lane density by ImageJ) was “over 50%”. For the same compound, the “Effect on survivin level, PC-3” value (survivin [5]; gradient increasing dose) was “dose-dependently suppressed survivin level”, the “Effect on levels of other IAPs” value [6] was “minimally affected” and the “Effect on protease susceptibility of other IAPs (DARTS)” value (XIAP, cIAP1 or cIAP2) was “negligible effects”.
